Experimental data: patent US12091426B2, “Bifunctional degraders of hematopoietic progenitor kinase and therapeutic uses thereof” (Nurix Therapeutics, Inc., priority 2021, dated 2024)

Target: T1, HPK1 (Homo sapiens, UniProt Q92918)
T1 construct: A HiBiT tag was introduced by CRISPR on the N terminus of HPK1 in Jurkat cells; host or cells: Jurkat cells (ATCC TIB-152), monoclonal line with CRISPR knock-in of HiBiT at the endogenous HPK1 locus
Assay: HPK1 Cellular HiBit Degradation Assay
Type: cell-based
Conditions: HiBiT HPK1 Jurkat cells, 24 hrs; for DC50: concentration at which 50% of HPK1 was remaining, read-out: DC50 Category; for Dmax: Jurkat, maximum degradation vs DMSO vehicle control, read-out: Dmax Category
Method in brief: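 HPK1 levels are read by HiBiT luminescence after 24 h exposure of HiBiT-knock-in Jurkat cells to compound at 10 uM–0.1 nM final (11 points). Relative to DMSO (100%), DC50 is the concentration leaving 50% HPK1 from a variable-slope fit, and Dmax is 100 minus minimum remaining. Viability checked in-plate.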

T1 sequence (Q92918 whole entry): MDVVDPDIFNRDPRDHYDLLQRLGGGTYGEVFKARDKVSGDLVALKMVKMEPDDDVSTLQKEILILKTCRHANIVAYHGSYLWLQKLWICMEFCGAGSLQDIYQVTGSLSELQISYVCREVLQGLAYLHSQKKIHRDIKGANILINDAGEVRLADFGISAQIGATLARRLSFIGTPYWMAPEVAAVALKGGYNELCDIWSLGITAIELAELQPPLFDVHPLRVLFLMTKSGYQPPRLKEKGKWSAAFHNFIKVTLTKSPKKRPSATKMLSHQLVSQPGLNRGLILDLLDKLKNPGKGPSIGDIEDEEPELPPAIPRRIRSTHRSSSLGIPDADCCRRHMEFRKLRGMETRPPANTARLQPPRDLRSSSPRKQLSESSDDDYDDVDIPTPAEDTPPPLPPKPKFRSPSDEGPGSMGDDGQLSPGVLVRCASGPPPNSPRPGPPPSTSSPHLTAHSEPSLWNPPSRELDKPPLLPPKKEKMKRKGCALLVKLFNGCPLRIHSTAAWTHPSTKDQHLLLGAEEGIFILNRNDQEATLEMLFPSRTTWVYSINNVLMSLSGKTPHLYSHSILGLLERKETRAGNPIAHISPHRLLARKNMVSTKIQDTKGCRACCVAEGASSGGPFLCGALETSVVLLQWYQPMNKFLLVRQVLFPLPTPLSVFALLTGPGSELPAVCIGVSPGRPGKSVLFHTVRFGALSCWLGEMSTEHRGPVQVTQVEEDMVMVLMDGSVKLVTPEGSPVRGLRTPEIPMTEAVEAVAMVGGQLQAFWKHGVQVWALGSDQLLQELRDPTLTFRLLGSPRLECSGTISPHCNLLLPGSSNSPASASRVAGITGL

**Q.** Which results are given for `CC(C)n1cnc2cc(-c3ccc4c(c3)N([C@H]3C[C@@H](N5CCC[C@@H](F)C5)C3)C(=O)C43CCN(C(=O)C4(C)CCN(C(=O)C5CCN(c6ccc(C7CCC(=O)NC7=O)cn6)CC5)CC4)CC3)nc(NC3CC3)c21` (mixture of isomers) [Example 219, (3RS)-3-(6-{4-[4-({6-[4-(cyclopropylamino)-3-(propan-2-yl)-3H-imidazo[4,5-c]pyridin-6-yl]-2-oxo-1-[(1S,3S)-3-[(3R)-3-fluoropiperidin-1-yl]cyclobutyl]-1,2-dihydrospiro[indole-3,4′-piperidin]-1′-yl}carbonyl)-4-methylpiperidine-1-carbonyl]piperidin-1-yl}pyridin-3-yl)piperidine-2,6-dione]?
**A.** DC50: 100 to 500 nM; Dmax: 70 to 85%

**Q.** Which results are given for `CC(C)n1cnc2cc(-c3ccc4c(c3)N([C@H]3C[C@@H](N5CCCCC5)C3)C(=O)C43CCN(C(=O)C4(C)CCN(C(=O)C5CCN(c6ccc(C7CCC(=O)NC7=O)cn6)CC5)CC4)CC3)nc(N[C@H]3C[C@H](C#N)C3)c21` (stereo partly drawn) [Example 176, (1R,3R)-3-({6-[1′-(1-{1-[5-(2,6-dioxopiperidin-3-yl)pyridin-2-yl]piperidine-4-carbonyl}-4-methylpiperidine-4-carbonyl)-2-oxo-1-[(1S,3S)-3-(piperidin-1-yl)cyclobutyl]-1,2-dihydrospiro[indole-3,4′-piperidin]-6-yl]-3-(propan-2-yl)-3H-imidazo[4,5-c]pyridin-4-yl}amino)cyclobutane-1-carbonitrile]?
**A.** DC50: 100 to 500 nM; Dmax: 70 to 85%

**Q.** What does the source list for `CC(C)n1cnc2cc(-c3ccc4c(c3)N([C@H]3C[C@@H](N5CCCCC5)C3)C(=O)C43CCN(C(=O)C4CCN(C(=O)[C@H]5CC[C@H](C(=O)N6CCc7ccc(C8CCC(=O)NC8=O)cc7C6)CC5)CC4)CC3)nc(Nc3ccccc3F)c21` (mixture of isomers) [Example 50, (3RS)-3-{2-[(1R,4R)-4-{4-[(6-{4-[(2-fluorophenyl)amino]-3-(propan-2-yl)-3H-imidazo[4,5-c]pyridin-6-yl}-2-oxo-1-[(1S,3S)-3-(piperidin-1-yl)cyclobutyl]-1,2-dihydrospiro[indole-3,4′-piperidin]-1′-yl)carbonyl]piperidine-1-carbonyl}cyclohexanecarbonyl]-1,2,3,4-tetrahydroisoquinolin-7-yl}piperidine-2,6-dione]?
**A.** DC50: < 100 nM; Dmax: 70 to 85%

**Q.** With `CC(C)n1cnc2cc(-c3ccc4c(c3)N([C@H]3C[C@@H](N5CCCCC5)C3)C(=O)C43CCN(C(=O)[C@H]4CC[C@H](CNC(=O)C5CCN(c6ccc(C7CCC(=O)NC7=O)cn6)CC5)CC4)CC3)nc(NC3CC3)c21` (mixture of isomers) [Example 291, 1-{5-[(3RS)-2,6-dioxopiperidin-3-yl]pyridin-2-yl}-N-{[(1R,4R)-4-({6-[4-(cyclopropylamino)-3-(propan-2-yl)-3H-imidazo[4,5-c]pyridin-6-yl]-2-oxo-1-[(1S,3S)-3-(piperidin-1-yl)cyclobutyl]-1,2-dihydrospiro[indole-3,4′-piperidin]-1′-yl}carbonyl)cyclohexyl]methyl}piperidine-4-carboxamide] as the compound, how does the DC50 read?
**A.** Its DC50 is 100 to 500 nM.

**Q.** And the Dmax?
**A.** The Dmax was 70 to 85%.

**Q.** `CC(C)n1cnc2cc(-c3ccc4c(c3)N([C@H]3C[C@@H](N5CCCCC5)C3)C(=O)C43CCN(C(=O)C4CCN(C(=O)[C@H]5CC[C@H](C(=O)N6CCCc7cc(C8CCC(=O)NC8=O)ccc76)CC5)CC4)CC3)nc(Nc3ccccc3F)c21` (mixture of isomers) [Example 51, (3RS)-3-{1-[(1R,4R)-4-{4-[(6-{4-[(2-fluorophenyl)amino]-3-(propan-2-yl)-3H-imidazo[4,5-c]pyridin-6-yl}-2-oxo-1-[(1S,3S)-3-(piperidin-1-yl)cyclobutyl]-1,2-dihydrospiro[indole-3,4′-piperidin]-1′-yl)carbonyl]piperidine-1-carbonyl}cyclohexanecarbonyl]-1,2,3,4-tetrahydroquinolin-6-yl}piperidine-2,6-dione] was tested. Which DC50 did it give?
**A.** The DC50 was less than 100 nM.

**Q.** And the Dmax?
**A.** The Dmax was 70 to 85%.

**Q.** `CC(C)n1cnc2cc(-c3ccc4c(c3)N([C@H]3C[C@@H](N5CCCCC5)C3)C(=O)C43CCN(C(=O)C4(C5CCN(C(=O)C6CCN(c7ccc(C8CCC(=O)NC8=O)cn7)CC6)CC5)CCC4)CC3)nc(NC3CC3)c21` (mixture of isomers) [Example 300, (3RS)-3-[6-(4-{4-[1-({6-[4-(cyclopropylamino)-3-(propan-2-yl)-3H-imidazo[4,5-c]pyridin-6-yl]-2-oxo-1-[(1S,3S)-3-(piperidin-1-yl)cyclobutyl]-1,2-dihydrospiro[indole-3,4′-piperidin]-1′-yl}carbonyl)cyclobutyl]piperidine-1-carbonyl}piperidin-1-yl)pyridin-3-yl]piperidine-2,6-dione] was tested. Which DC50 did it give?
**A.** Its DC50 is less than 100 nM.

**Q.** And the Dmax?
**A.** Its Dmax is 70 to 85%.

**Q.** Which results are given for `CC(C)n1cnc2cc(-c3ccc4c(c3)N([C@H]3C[C@@H](N5CCCCC5)C3)C(=O)C43CCN(C(=O)C4CCN(C(=O)C5CCN(c6ccc(N7CCC(=O)NC7=O)cc6)CC5)CC4)CC3)nc(Nc3ccccc3F)c21` [Example 70, 1-[4-(4-{4-[(6-{4-[(2-fluorophenyl)amino]-3-(propan-2-yl)-3H-imidazo[4,5-c]pyridin-6-yl}-2-oxo-1-[(1S,3S)-3-(piperidin-1-yl)cyclobutyl]-1,2-dihydrospiro[indole-3,4′-piperidin]-1′-yl)carbonyl]piperidine-1-carbonyl}piperidin-1-yl)phenyl]-1,3-diazinane-2,4-dione]?
**A.** DC50: < 100 nM; Dmax: > 85%

**Q.** Which DC50 does the source give for `Cc1cc(C(=O)N2CCN(c3ccc4c(c3)C(=O)N(C3CCC(=O)NC3=O)C4=O)CC2)ccc1C(=O)N1CCC2(CC1)C(=O)N([C@H]1C[C@@H](N3CCCCC3)C1)c1cc(-c3cc4ncn(C(C)C)c4c(Nc4ccccc4F)n3)ccc12` (mixture of isomers) [Example 124, 2-[(3RS)-2,6-dioxopiperidin-3-yl]-5-(4-{4-[(6-{4-[(2-fluorophenyl)amino]-3-(propan-2-yl)-3H-imidazo[4,5-c]pyridin-6-yl}-2-oxo-1-[(1S,3S)-3-(piperidin-1-yl)cyclobutyl]-1,2-dihydrospiro[indole-3,4′-piperidin]-1′-yl)carbonyl]-3-methylbenzoyl}piperazin-1-yl)-2,3-dihydro-1H-isoindole-1,3-dione] here?
**A.** The DC50 was 100 to 500 nM.

**Q.** What about the Dmax of the same compound?
**A.** Its Dmax is 70 to 85%.

**Q.** `CC(C)n1cnc2cc(-c3ccc4c(c3)N([C@H]3C[C@@H](N5CCCCC5)C3)C(=O)C43CCN(C(=O)[C@H]4CC[C@H](C(=O)N5CCC(Nc6ccc(C7CCC(=O)NC7=O)cn6)CC5)CC4)CC3)nc(Nc3ccncc3F)c21` (mixture of isomers) [Example 27] was tested. Which DC50 did it give?
**A.** Its DC50 is less than 100 nM.

**Q.** What about the Dmax of the same compound?
**A.** The Dmax was 50 to 70%.

**Q.** Which DC50 does the source give for `CC(C)n1cnc2cc(-c3ccc4c(c3)N([C@H]3C[C@@H](N5CC6CCC(C6)C5)C3)C(=O)C43CCN(C(=O)C4(C)CCN(C(=O)CC5CCN(c6ccc(C7CCC(=O)NC7=O)cn6)CC5)CC4)CC3)nc(NC3CC3)c21` (mixture of isomers) [Example 223, (3RS)-3-[6-(4-{2-[4-({6-[4-(cyclopropylamino)-3-(propan-2-yl)-3H-imidazo[4,5-c]pyridin-6-yl]-2-oxo-1-[(1S,3S)-3-{3-azabicyclo[3.2.1]octan-3-yl}cyclobutyl]-1,2-dihydrospiro[indole-3,4′-piperidin]-1′-yl}carbonyl)-4-methylpiperidin-1-yl]-2-oxoethyl}piperidin-1-yl)pyridin-3-yl]piperidine-2,6-dione] here?
**A.** Its DC50 is less than 100 nM.

**Q.** What about the Dmax of the same compound?
**A.** Its Dmax is 70 to 85%.

**Q.** `CC(C)n1cnc2cc(-c3ccc4c(c3)N([C@H]3C[C@@H](N5CCCCC5)C3)C(=O)C43CCN(C(=O)[C@@H]4CCN(C(=O)[C@H]5CC[C@H](N(C)c6cccc7c6C(=O)N(C6CCC(=O)NC6=O)C7=O)CC5)C4)CC3)nc(NC3CC3)c21` (mixture of isomers) [Example 129, 2-[(3RS)-2,6-dioxopiperidin-3-yl]-4-{methyl[(1R,4R)-4-[(3R)-3-({6-[4-(cyclopropylamino)-3-(propan-2-yl)-3H-imidazo[4,5-c]pyridin-6-yl]-2-oxo-1-[(1S,3S)-3-(piperidin-1-yl)cyclobutyl]-1,2-dihydrospiro[indole-3,4′-piperidin]-1′-yl}carbonyl)pyrrolidine-1-carbonyl]cyclohexyl]amino}-2,3-dihydro-1H-isoindole-1,3-dione] was tested. Which DC50 did it give?
**A.** The DC50 was 100 to 500 nM.

**Q.** And the Dmax?
**A.** The Dmax was 70 to 85%.

**Q.** How did the DC50 turn out when `CC(C)n1cnc2cc(-c3ccc4c(c3)N([C@H]3C[C@@H](N5CCCCC5)C3)C(=O)C43CCN(S(=O)(=O)C4CCN(C(=O)C5CCN(c6ccc(C7CCC(=O)NC7=O)cn6)CC5)CC4)CC3)nc(NC3CC3)c21` (mixture of isomers) [Example 159, (3RS)-3-(6-{4-[4-({6-[4-(cyclopropylamino)-3-(propan-2-yl)-3H-imidazo[4,5-c]pyridin-6-yl]-2-oxo-1-[(1S,3S)-3-(piperidin-1-yl)cyclobutyl]-1,2-dihydrospiro[indole-3,4′-piperidin]-1′-yl}sulfonyl)piperidine-1-carbonyl]piperidin-1-yl}pyridin-3-yl)piperidine-2,6-dione] was run?
**A.** Its DC50 is less than 100 nM.

**Q.** What about the Dmax of the same compound?
**A.** Its Dmax is greater than 85%.

**Q.** How did the DC50 turn out when `CC(C)n1cnc2cc(-c3ccc4c(c3)N([C@H]3C[C@@H](N5CCCCC5)C3)C(=O)C43CCN(C(=O)C4(C(F)(F)F)CCN(C(=O)C5CCN(c6ccc(C7CCC(=O)NC7=O)cn6)CC5)CC4)CC3)nc(NC3CC3)c21` (mixture of isomers) [Example 275, (3RS)-3-(6-{4-[4-({6-[4-(cyclopropylamino)-3-(propan-2-yl)-3H-imidazo[4,5-c]pyridin-6-yl]-2-oxo-1-[(1S,3S)-3-(piperidin-1-yl)cyclobutyl]-1,2-dihydrospiro[indole-3,4′-piperidin]-1′-yl}carbonyl)-4-(trifluoromethyl)piperidine-1-carbonyl]piperidin-1-yl}pyridin-3-yl)piperidine-2,6-dione] was run?
**A.** Its DC50 is 100 to 500 nM.

**Q.** And the Dmax?
**A.** Its Dmax is greater than 85%.
